Assay results as given in PMC6001580, “Synthesis and molecular modelling studies of pyrimidinones and pyrrolo[3,4-d]-pyrimidinodiones as new antiplasmodial compounds” (Memórias do Instituto Oswaldo Cruz, 2018).
Several values for one entry are separate records, joined by “and”; a condition that tells them apart may be missing. Equal entries are not always repeated. Where two headings read alike, the source gives them in different places.

What was measured:
[1] = test system: BGM cells; assay: Cytotoxicity evaluation on mammalian cells (MTT); format: cell-based; details: 24 h, mean of three experiments
Procedure: Cytotoxicity evaluation on mammalian cells - BGM cells (originally acquired from ATCC (American Type Culture Collection), Manassas, VA, USA by the Federal University of Minas Gerais, Brazil, and donated by Dr Antoniana Krettli - Federal University of Minas Gerais) were cultured in 75 cm^2 sterile ﬂasks containing RPMI 1640 medium supplemented with 10% foetal bovine serum (FBS) at a concentration of 5 x 10^3 cells per millilitre in a 5% CO2 atmosphere at 37 °C. Cells were added with the test compounds in serial dilution. When the cell monolayer was confluent, it was trypsinised, washed with a culture medium distributed in a flat-bottomed 96-well plate (1 × 10^5 cells/mL) and incubated for 24 h at 37 °C to ensure cell adherence. Then, the drugs were added in serial dilution (1000-15 µM) and incubated for 24 h at 37 °C. Subsequently, the MTT salt, in a concentration of 3 mg/mL, was added after 3 h; then, the supernatant was removed, and the dye present on the bottom of the plate wells was dissolved in DMSO in a volume of 100 µL/well DMSO. The microplates were then read in an Espectramax 190 (Molecular Devices, USA) spectrophotometer, using the 570 nm filter. The determination of MDL50 was performed using a dose response curves nonlinear regression function ([Denizot and Lang 1986]).

[2] = test system: chloroquine-resistant Plasmodium falciparum W2 strain; assay: Antiplasmodial in vitro assay (HRPII sandwich ELISA, 72 h); format: cell-based; details: for IC50: Plasmodium falciparum, W2, 72 h; for SI (selectivity index): SI = MDL50 / IC50 (BGM cells vs P. falciparum W2)
Source text: Antiplasmodial in vitro assay - The cultivation of P. falciparum W2 strain (originating from Indochina and cultivated in the Malaria Research Laboratory, Oswaldo Cruz Foundation-Fiocruz), which is chloroquine-resistant, was made according to the protocol of [Trager and Jensen (1976)], using human erythrocytes (A^+) in an RPMI 1640 medium supplemented with human serum. Parasites were synchronised to obtain the young (ring) parasite forms ([Lambros and Vanderberg 1979]). Parasitaemia was adjusted to 0.05% and haematocrit to 1.5%. Subsequently, the cultures were placed in microplates with the drugs, previously diluted in dimethyl sulphoxide and medium (DMSO 0.02% v/v), to be tested in serial dilutions (50 - 0.78 µM), as well as positive controls (chloroquine in serial dilutions; 10 - 0.07 µM) and negative (no drug) controls. All the microplates were incubated for 72 h. The microplates were then subjected to three cycles of freezing and thawing; the parasite growth was measured through the quantification of histidine-rich protein II (HRPII) using specific monoclonal antibodies (MPFM ICLLAB-55A®, USA and MPFG55P ICLLAB®, USA) in sandwich ELISA ([Noedl et al. 2002]). Absorbance was read at 450 nm in an Espectramax 190 spectrophotometer (Molecular Devices, USA), and the determination of the IC50 was made using dose-response curves.

[3] = test system: P. berghei ANKA expressing green fluorescent protein (PbA-GFP); assay: In vivo activity evaluation against P. berghei (four-day test in mice); design: species or system Plasmodium berghei; details: Swiss mice, 30 mg/Kg orally for four consecutive days, vs untreated controls; for Reduction (%) of parasitaemia, Day eight: day eight after infection; for Reduction (%) of parasitaemia, Day five: day five after infection
Source text: In vivo activity evaluation against P. berghei - Swiss mice (Institute of Science and Technology in Biomodels - Fiocruz) were inoculated with 10^5 erythrocytes infected with P. berghei ANKA expressing green fluorescent protein (PbA-GFP, a donation from the malaria research and reference reagent resource centre -MR4, Manassas, VA; deposited by CJ Janse and AP Waters; MR4 number: MRA-865) intraperitoneally (day 1 of the experiment). Three hours after inoculation, the animals were randomly divided into five groups of mice. […] All of the test compounds and chloroquine were administered at a dose of 30 mg/kg, orally by gavage for four consecutive days. On days 5 and 8 after infection, flow cytometry was used to detect and count the number of parasitised red blood cells (RBC) that expressed GFP in relation to 10,000 RBCs, thus assessing the evolution of parasitaemia. […] The antimalarial activity was determined by the percentage reduction in parasitaemia of treated animals compared to untreated controls ([Peters et al. 1975]).

[4] = Hemolysis assay; format: cell-based; details: erythrocyte suspension (1% haematocrit), at 1000 μM, 37 °C, read-out: haemolysis
Procedure: Hemolysis assay - The haemolysis assay was performed according to the protocol described by [Wang et al. (2010)]. The compounds were dissolved in DMSO (0.5% v/v). Suspensions of erythrocytes (1% haematocrit) were incubated with the compounds at serial dilutions ranging from 15 to 1000 µM, at 37 °C for 30 min with a constant stirring. A 0.05% solution of saponin (Sigma-Aldrich) was used as a positive control of the test as it generated 100% haemolysis, and the suspension of erythrocytes in the medium was used as a negative control (blank). Following incubation, suspensions were centrifuged at 1000 g for 10 min, and the absorbance of the supernatants was measured at 540 nm using an Espectramax 190 spectrophotometer. The haemolysis rate of the samples was calculated as follows: % haemolysis = (sample absorbance - blank absorbance) x 100 / absorbance of the control with saponin.

[5] = P. falciparum W2 strain, 72 h, HRPII ELISA, mean of three experiments, read-out: IC50

Row | Compound | MDL50 [1] | IC50 [2, 5] | SI (selectivity index) [2] | Reduction (%) of parasitaemia, Day eight [3] | Reduction (%) of parasitaemia, Day five [3] | hemolysis at 30 min, 1000 µM [4] | IC50 [2]
1 | CCOC(=O)C1=C(CCl)NC(=O)NC1c1ccccc1 (centres unmarked) [1a] | 24.6 ± 0.03 µM | 6.38 ± 0.8 µM | 3.9 | – | – | – | –
2 | CCOC(=O)C1=C(CCl)NC(=O)NC1c1ccc(OC)cc1 (centres unmarked) [1b] | 57 µM and 57 ± 0.65 µM | – | 19 | 33.8% | 0% | – | –
3 | CCOC(=O)C1=C(CCl)NC(=O)NC1c1cccc(Br)c1 (centres unmarked) [1c] | 21.7 ± 1.24 µM | 6.17 ± 0.02 µM | 3.5 | – | – | – | –
4 | CCOC(=O)C1=C(CCl)NC(=O)NC1c1ccc(Cl)cc1 (centres unmarked) [1d] | 2.5 ± 0.93 µM | 1.96 ± 0.21 µM | 1.3 | – | – | 3.6% | –
5 | CCOC(=O)C1=C(CCl)NC(=O)NC1c1ccccc1OC (centres unmarked) [1e] | 23.8 ± 0.6 µM | – | 1.95 | – | – | – | –
6 | CCOC(=O)C1=C(CCl)NC(=O)NC1c1ccc(Br)cc1 (centres unmarked) [1f] | 22 µM and 22 ± 0.56 µM | 1.76 ± 0.27 µM | 12.5 | 60.9% | 9.1% | 0.95% | –
7 | CCOC(=O)C1=C(CCl)NC(=O)NC1c1cc(OC)c(OC)c(OC)c1 (centres unmarked) [1g] | 21.7 ± 1.15 µM | 24.1 ± 1.2 µM | 0.9 | – | – | – | –
8 | CCOC(=O)C1=C(CCl)NC(=O)NC1c1ccccc1Cl (centres unmarked) [1h] | 77 µM and 77 ± 0.87 µM | 3.12 ± 0.06 µM | 24.6 | 55.2% | 0% | – | –
9 | CCOC(=O)C1=C(CCl)NC(=O)NC1c1ccc(OC)cc1OC (centres unmarked) [1i] | 9.7 ± 0.46 µM | 2.98 ± 0.18 µM | 3.3 | – | – | – | –
10 | CCOC(=O)C1=C(CCl)NC(=O)NC1c1ccc([N+](=O)[O-])cc1 (centres unmarked) [1j] | 26.2 ± 1.1 µM | 6 ± 0.8 µM | 4.4 | – | – | – | –
11 | CCOC(=O)C1=C(CCl)NC(=O)NC1c1ccc(OC)c(OC)c1 (centres unmarked) [1k] | 24.5 ± 0.09 µM | 3 ± 0.25 µM | 8.2 | – | – | – | –
12 | CCOC(=O)C1=C(CCl)NC(=O)NC1c1ccc(O)c(OC)c1 (centres unmarked) [1l] | – | 3 µM | – | – | – | – | –
13 | O=C1NC2=C(C(=O)N(CCc3ccccc3)C2)C(c2ccccc2)N1 (centres unmarked) [2a] | > 100 µM | > 50 µM | – | – | – | – | –
14 | COc1ccc(C2NC(=O)NC3=C2C(=O)N(CCc2ccccc2)C3)cc1 (centres unmarked) [2b] | 24.6 ± 1.23 µM | 26.4 ± 0.26 µM | 0.93 | – | – | 21.7% | –
15 | O=C1NC2=C(C(=O)N(CCc3ccccc3)C2)C(c2cccc(Br)c2)N1 (centres unmarked) [2c] | 6.9 ± 0.97 µM | > 50 µM | – | – | – | 12.3% | –
16 | COc1ccccc1C1NC(=O)NC2=C1C(=O)N(CCc1ccccc1)C2 (centres unmarked) [2e] | 56 ± 1.83 µM | 22 ± 0.08 µM | 2.5 | – | – | – | –

Row | Compound | MDL50 [1] | IC50 [2, 5] | SI (selectivity index) [2] | Reduction (%) of parasitaemia, Day eight [3] | Reduction (%) of parasitaemia, Day five [3] | hemolysis at 30 min, 1000 µM [4] | IC50 [2]
17 | O=C1NC2=C(C(=O)N(CCc3ccccc3)C2)C(c2ccc(Br)cc2)N1 (centres unmarked) [2f] | 18.6 ± 1.21 µM | > 50 µM | – | – | – | 22.6% | –
18 | COc1cc(C2NC(=O)NC3=C2C(=O)N(CCc2ccccc2)C3)cc(OC)c1OC (centres unmarked) [2g] | 6.2 ± 0.73 µM | > 50 µM | < 0.1 | – | – | – | –
19 | O=C1NC2=C(C(=O)N(CCc3ccccc3)C2)C(c2ccccc2Cl)N1 (centres unmarked) [2h] | > 100 µM | > 50 µM | – | – | – | – | –
20 | O=C1NC2=C(C(=O)N(CCc3ccccc3)C2)C(c2ccc([N+](=O)[O-])cc2)N1 (centres unmarked) [2j] | 8.9 ± 0.9 µM | 25.6 ± 0.09 µM | 0.4 | – | – | – | –
21 | O=C1NC2=C(C(=O)N(Cc3ccccc3)C2)C(c2ccccc2)N1 (centres unmarked) [3a] | > 100 µM | > 50 µM | – | – | – | – | –
22 | COc1ccc(C2NC(=O)NC3=C2C(=O)N(Cc2ccccc2)C3)cc1 (centres unmarked) [3b] | > 100 µM | > 50 µM | – | – | – | – | –
23 | O=C1NC2=C(C(=O)N(Cc3ccccc3)C2)C(c2ccc(Cl)cc2)N1 (centres unmarked) [3d] | 86 ± 1.27 µM | 45 ± 0.79 µM | 1.9 | – | – | – | –
24 | COc1ccccc1C1NC(=O)NC2=C1C(=O)N(Cc1ccccc1)C2 (centres unmarked) [3e] | > 100 µM | > 50 µM | – | – | – | – | –
25 | O=C1NC2=C(C(=O)N(Cc3ccccc3)C2)C(c2ccc(Br)cc2)N1 (centres unmarked) [3f] | > 100 µM | 26 ± 1.15 µM | > 3.8 | – | – | – | –
26 | COc1cc(C2NC(=O)NC3=C2C(=O)N(Cc2ccccc2)C3)cc(OC)c1OC (centres unmarked) [3g] | > 100 µM | > 50 µM | – | – | – | – | –
27 | O=C1NC2=C(C(=O)N(Cc3ccccc3)C2)C(c2ccccc2Cl)N1 (centres unmarked) [3h] | > 100 µM | 26.7 ± 0.56 µM | > 3.8 | – | – | – | –
28 | COc1ccc(C2NC(=O)NC3=C2C(=O)N(Cc2ccccc2)C3)c(OC)c1 (centres unmarked) [3i] | > 100 µM | > 50 µM | – | – | – | – | –
29 | O=C1NC2=C(C(=O)N(Cc3ccccc3)C2)C(c2ccc([N+](=O)[O-])cc2)N1 (centres unmarked) [3j] | > 100 µM | > 50 µM | – | – | – | – | –
30 | COc1ccc(C2NC(=O)NC3=C2C(=O)N(Cc2ccccc2)C3)cc1OC (centres unmarked) [3k] | > 100 µM | > 50 µM | – | – | – | – | –
31 | CCN(CC)CCCC(C)Nc1ccnc2cc(Cl)ccc12 (centres unmarked) [Chloroquine, reference compound] | – | – | – | 100% | 97.2% | – | 0.55 ± 0.09 µM
